Experimental data published in PubChem BioAssay AID330 (DTP/NCI, 2004).
Toxic doses and inconclusive results are not listed.

System: P388 leukemia ip, CD2F1 mice, survival T/C
Test: NCI In Vivo Anticancer Drug Screen. Data for tumor model P388 Leukemia (intraperitoneal) in CD2F1 (CDF1) mice
Conditions: endpoint: median survival time, higher = longer survival
Method in brief: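 Mice carrying the transplanted tumor received test compound or vehicle. Survival was recorded in each group, and the value is the treated-group measurement divided by that of the vehicle-treated control group.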

[1] = dose: 60.0 mg/kg/injection, schedule: Q01DX005 (ip), vehicle: saline with Tween-80
[2] = dose: 120.0 mg/kg/injection, schedule: Q01DX005 (ip), vehicle: saline with Tween-80
[3] = dose: 240.0 mg/kg/injection, schedule: Q01DX005 (ip), vehicle: saline with Tween-80
[4] = dose: 25.0 mg/kg/injection, schedule: Q01DX009 (ip), vehicle: saline
[5] = dose: 50.0 mg/kg/injection, schedule: Q01DX009 (ip), vehicle: saline
[6] = dose: 100.0 mg/kg/injection, schedule: Q01DX009 (ip), vehicle: saline
[7] = dose: 60.0 mg/kg/injection, schedule: Q01DX005 (ip), vehicle: Klucel (hydroxypropylcellulose) (HPC)
[8] = dose: 50.0 mg/kg/injection, schedule: Q01DX009 (ip), vehicle: Klucel (hydroxypropylcellulose) (HPC)
[9] = dose: 100.0 mg/kg/injection, schedule: Q01DX009 (ip), vehicle: Klucel (hydroxypropylcellulose) (HPC)
[10] = dose: 200.0 mg/kg/injection, schedule: Q01DX009 (ip), vehicle: Klucel (hydroxypropylcellulose) (HPC)

CC(=O)C1=C(O)/C(=C\SCc2ccccc2)NC1=O
T/C (dose: 8.75 mg/kg/injection, schedule: Q01DX005 (ip), vehicle: Klucel (hydroxypropylcellulose) (HPC)): 105 % of control
T/C (dose: 17.5 mg/kg/injection, schedule: Q01DX005 (ip), vehicle: Klucel (hydroxypropylcellulose) (HPC)): 104 % of control
T/C (dose: 35.0 mg/kg/injection, schedule: Q01DX005 (ip), vehicle: Klucel (hydroxypropylcellulose) (HPC)): 101 % of control

CS(=O)(=O)N1CCCN(S(C)(=O)=O)COC1
T/C [1]: 99 % of control
T/C [2]: 101 % of control
T/C [3]: 101 % of control

CN=C(N)NN
T/C [4]: 101 % of control
T/C [5]: 97 % of control
T/C [6]: 93 % of control
T/C (dose: 200.0 mg/kg/injection, schedule: Q01DX009 (ip), vehicle: saline): 97 % of control

N#CN(Cc1ccccc1)Cc1ccccc1.[I][Sn]([c]1ccccc1)([c]1ccccc1)[c]1ccccc1
T/C (dose: 1.5 mg/kg/injection, schedule: Q01DX005 (ip), vehicle: saline with Tween-80): 101 % of control
T/C (dose: 3.0 mg/kg/injection, schedule: Q01DX005 (ip), vehicle: saline with Tween-80): 108 % of control
T/C (dose: 6.0 mg/kg/injection, schedule: Q01DX005 (ip), vehicle: saline with Tween-80): 100 % of control
T/C (dose: 6.25 mg/kg/injection, schedule: Q01DX005 (ip), vehicle: saline with Tween-80): 94 % of control

COc1ccc([C@@H]2c3cc4c(cc3C[C@H]3COC(=O)[C@@H]32)OCO4)cc1OC
T/C (dose: 25.0 mg/kg/injection, schedule: Q04DX002 (ip), vehicle: Klucel (hydroxypropylcellulose) (HPC)): 108 % of control
T/C (dose: 100.0 mg/kg/injection, schedule: Q04DX002 (ip), vehicle: Klucel (hydroxypropylcellulose) (HPC)): 124 % of control

COc1cc(OC(C)C)cc2c1C(=O)C(C(O)(O)C(F)(F)F)=CC2=O
T/C (dose: 15.0 mg/kg/injection, schedule: Q01DX005 (ip), vehicle: Klucel (hydroxypropylcellulose) (HPC)): 109 % of control
T/C (dose: 30.0 mg/kg/injection, schedule: Q01DX005 (ip), vehicle: Klucel (hydroxypropylcellulose) (HPC)): 103 % of control
T/C [7]: 99 % of control

COc1cc(OC)c(-c2cc(C(=O)O)c3cc4ccccc4cc3n2)c(OC)c1
T/C [8]: 89 % of control
T/C [9]: 99 % of control
T/C [10]: 97 % of control

O=c1cccc2c1c1cc[nH]c3ccc(=O)n2c31
T/C (dose: 1.25 mg/kg/injection, schedule: Q01DX009 (ip), vehicle: saline with Tween-80): 98 % of control
T/C (dose: 2.5 mg/kg/injection, schedule: Q01DX009 (ip), vehicle: saline with Tween-80): 107 % of control
T/C (dose: 5.0 mg/kg/injection, schedule: Q01DX009 (ip), vehicle: saline with Tween-80): 102 % of control

O=C(O)CCCCCCC(=O)CCl
T/C (dose: 25.0 mg/kg/injection, schedule: Q04DX003 (ip), vehicle: saline): 110 % of control
T/C (dose: 50.0 mg/kg/injection, schedule: Q04DX003 (ip), vehicle: saline): 110 % of control
T/C (dose: 50.0 mg/kg/injection, schedule: Q04DX003 (ip), vehicle: suspension in saline): 119 % of control
T/C (dose: 100.0 mg/kg/injection, schedule: Q04DX003 (ip), vehicle: saline): 121 % of control
T/C (dose: 100.0 mg/kg/injection, schedule: Q04DX003 (ip), vehicle: suspension in saline): 116 % of control

O=NNc1ccc(Cl)cn1
T/C (dose: 3.12 mg/kg/injection, schedule: Q01DX009 (ip), vehicle: water): 123 % of control
T/C (dose: 12.5 mg/kg/injection, schedule: Q01DX009 (ip), vehicle: water): 187 % of control

CC(=O)Oc1ccc(C2c3cc(OC(C)=O)c(OC(C)=O)cc3CC3C(=O)OCC32)cc1OC(C)=O (stereo not given)
T/C (dose: 50.0 mg/kg/injection, schedule: Q01DX005 (ip), vehicle: distilled water + alcohol): 102 % of control
T/C (dose: 100.0 mg/kg/injection, schedule: Q01DX005 (ip), vehicle: distilled water + alcohol): 96 % of control
T/C (dose: 200.0 mg/kg/injection, schedule: Q01DX005 (ip), vehicle: distilled water + alcohol): 100 % of control

C[n+]1cccc2c1-c1ccccc1C2=O
T/C (dose: 25.0 mg/kg/injection, schedule: Q01DX005 (ip), vehicle: Klucel (hydroxypropylcellulose) (HPC)): 101 % of control
T/C (dose: 50.0 mg/kg/injection, schedule: Q01DX005 (ip), vehicle: Klucel (hydroxypropylcellulose) (HPC)): 115 % of control
T/C (dose: 100.0 mg/kg/injection, schedule: Q01DX005 (ip), vehicle: Klucel (hydroxypropylcellulose) (HPC)): 101 % of control
T/C (dose: 200.0 mg/kg/injection, schedule: Q01DX005 (ip), vehicle: Klucel (hydroxypropylcellulose) (HPC)): 91 % of control

COc1ccc(N=Cc2c(O)ccc3c2oc2cc(Cl)c(O)c(Cl)c23)cc1
T/C [7]: 96 % of control
T/C (dose: 120.0 mg/kg/injection, schedule: Q01DX005 (ip), vehicle: Klucel (hydroxypropylcellulose) (HPC)): 93 % of control
T/C (dose: 240.0 mg/kg/injection, schedule: Q01DX005 (ip), vehicle: Klucel (hydroxypropylcellulose) (HPC)): 91 % of control

CC1(C)OC(=O)NC1c1ccccc1 (stereo not given)
T/C (dose: 6.25 mg/kg/injection, schedule: Q01DX009 (ip), vehicle: saline with Tween-80): 100 % of control
T/C (dose: 12.5 mg/kg/injection, schedule: Q01DX009 (ip), vehicle: saline with Tween-80): 99 % of control
T/C (dose: 25.0 mg/kg/injection, schedule: Q01DX009 (ip), vehicle: saline with Tween-80): 117 % of control

S=c1[nH]c2ccccc2n2cccc12
T/C [8]: 108 % of control
T/C [9]: 108 % of control
T/C [10]: 106 % of control

CCOC(=O)/C(C#N)=C(\CC)c1cc(Cl)cc(Cl)c1O
T/C [1]: 100 % of control
T/C [2]: 90 % of control
T/C [3]: 96 % of control

Cc1ccc(CCn2c3c(c4cc(Cl)ccc42)CN(C)CC3)cn1
T/C [5]: 99 % of control
T/C [6]: 102 % of control

COc1cccc2c1C(=O)c1c(O)c3c(c(O)c1C2=O)C[C@@](O)(C(=O)CO)C[C@@H]3OC1CC(NC(=S)Nc2ccc3ccccc3c2)C(O)C(C)O1 (stereo not given in full)
T/C (dose: 3.13 mg/kg/injection, schedule: Q01DX009 (ip), vehicle: saline): 92 % of control
T/C (dose: 6.25 mg/kg/injection, schedule: Q01DX009 (ip), vehicle: saline): 99 % of control
T/C (dose: 12.5 mg/kg/injection, schedule: Q01DX009 (ip), vehicle: saline): 99 % of control
T/C [4]: 101 % of control
T/C [5]: 108 % of control

C#Cc1cccc(N=Cc2cc(Cl)cc(Cl)c2O)c1
T/C (dose: 50.0 mg/kg/injection, schedule: Q01DX005 (ip), vehicle: saline with Tween-80): 102 % of control
T/C (dose: 100.0 mg/kg/injection, schedule: Q01DX005 (ip), vehicle: saline with Tween-80): 102 % of control
T/C (dose: 200.0 mg/kg/injection, schedule: Q01DX005 (ip), vehicle: saline with Tween-80): 108 % of control

CC(=O)Oc1cc2c(c(OC(C)=O)n1)C(C)N(Cc1ccccc1)C2=O (stereo not given)
T/C [8]: 106 % of control
T/C [9]: 106 % of control
T/C [10]: 115 % of control

COc1cccc2c1C(=O)c1c(O)c3c(c(O)c1C2=O)C[C@@](O)(c1csc(-c2ccncc2)n1)C[C@@H]3OC1CC(N)C(O)C(C)O1 (stereo not given in full)
T/C (dose: 6.25 mg/kg/injection, schedule: Q04DX003 (ip), vehicle: water): 118 % of control
T/C (dose: 12.5 mg/kg/injection, schedule: Q04DX003 (ip), vehicle: water): 122 % of control
T/C (dose: 25.0 mg/kg/injection, schedule: Q04DX003 (ip), vehicle: water): 100 % of control
T/C (dose: 50.0 mg/kg/injection, schedule: Q04DX003 (ip), vehicle: water): 118 % of control
T/C (dose: 200.0 mg/kg/injection, schedule: Q04DX003 (ip), vehicle: water): 92 % of control

O=C(O)c1ccccc1C(=O)O.[Cu+2].[NH-]CC[NH-]
T/C (dose: 1.25 mg/kg/injection, schedule: Q04DX002 (ip), vehicle: saline with Tween-80): 100 % of control
T/C (dose: 2.5 mg/kg/injection, schedule: Q04DX002 (ip), vehicle: saline with Tween-80): 99 % of control
T/C (dose: 5.0 mg/kg/injection, schedule: Q04DX002 (ip), vehicle: saline with Tween-80): 98 % of control

CCO/C([O-])=C(/C(=N/S(=O)(=O)c1ccc(C)cc1)SC)[n+]1ccccc1
T/C (dose: 25.0 mg/kg/injection, schedule: Q04DX002 (ip), vehicle: saline with Tween-80): 100 % of control
T/C (dose: 50.0 mg/kg/injection, schedule: Q04DX002 (ip), vehicle: saline with Tween-80): 99 % of control
T/C (dose: 100.0 mg/kg/injection, schedule: Q04DX002 (ip), vehicle: saline with Tween-80): 99 % of control
